Test [1] is described as follows: Inhibition of ET- 1 stimulated arachidonic acid release (AAR) in cultured rabbit renal vascular smooth muscle cells expressing the endothelin A receptor.
Test [2] in a line: Compound was evaluated for the receptor binding activity in rabbit artery vascular smooth muscle cells expressing Endothelin A receptor.
Test [3] in a line: Inhibition of ET- 1 stimulated arachidonic acid release (AAR) in cultured rabbit renal vascular smooth muscle cells expressing the endothelin B receptor.

The term IC50 denotes the concentration that inhibits the measured activity by half. Read a low IC50 as higher potency. `COc1ccc(Sc2c(C(=O)O)n(Cc3ccc4c(c3)OCO4)c3cc4c(cc23)OCO4)cc1OC` [5-Benzo[1,3]dioxol-5-ylmethyl-7-(3,4-dimethoxy-phenylsulfanyl)-5H-[1,3]dioxolo[4,5-f]indole-6-carboxylic acid] showed an IC50 in test [1] of 0.065 µM. In test [2], `COc1cccc(Sc2c(C(=O)O)sc3ccccc23)c1` [3-(3-Methoxy-phenylsulfanyl)-benzo[b]thiophene-2-carboxylic acid] came in with an IC50 of 5.9 µM. Take `COc1cc2c(Sc3ccc4c(c3)OCO4)c(C(=O)O)n(Cc3ccc4c(c3)OCO4)c2cc1OCc1ccccc1` [1-Benzo[1,3]dioxol-5-ylmethyl-3-(benzo[1,3]dioxol-5-ylsulfanyl)-6-benzyloxy-5-methoxy-1H-indole-2-carboxylic acid]: the results for the IC50 in test [3] and in test [1] were 0.74 µM and 3.4 µM, respectively. For the molecule `COc1cccc(Sc2c(C(=O)O)oc3ccccc23)c1` [3-(3-Methoxy-phenylsulfanyl)-benzofuran-2-carboxylic acid], in test [2], the IC50 was 23 µM.

The values are drawn from BindingDB's records for doi:10.1016/0960-894X(96)00232-6 (1996).
